Columns and labels:
[1] = system: Microsporum fulvum; assay: Antifungal growth inhibition assay in 96 well microtitre plates (A595); type: cell-based
Procedure: (§1) The inhibitory effects of the plant defensins on the growth of Trichophyton rubrum, T. interdigitale, Microsporum fulvum and C. albicans (obtained from the National Mycology Reference Centre, South Australia Pathology at the Women's and Children's Hospital, Adelaide, Australia) are measured essentially as described by Broekaert et al. (1990) FEMS Microbiol Lett 69:55-59. Spores of T. rubrum, T. interdigitale and M. fulvum are isolated from sporulating fungus growing on 1⁄2 strength Sabouraud dextrose agar (SDA). Spores were removed from the plates by the addition of 1⁄2 strength potato dextrose broth (PDB). C. albicans cells are grown in Yeast Peptone Broth (YPD) for 16 h. Spore and cell concentrations are measured using a hemocytometer. Antifungal assays are conducted in 96 well microtitre plates essentially as herein described. Wells are loaded with 20 μm L of filter sterilized (0.22 μm syringe filter, Millipore) defensin (10× stock for each final concentration) or water and 80 μm L of 5×10^4 spores/mL (T. rubrum, T. interdigitale, M. fulvum) or 5,000 cells/mL (C. albicans) in 1⁄2 strength PDB. The plates are incubated at 30° C. Fungal growth is assayed by measuring optical density at 595 nm ([…]) using a microtitre plate reader (SpectraMax Pro M2; Molecular Devices. Growth is allowed to proceed until the optical density (OD) of the fungus in the absence of any test defensin reached an OD of 0.2. Each test is performed in duplicate.

[2] = system: Trichophyton rubrum; assay: as above; type: cell-based
Procedure: as §1

[3] = system: C. albicans; assay: as above; type: cell-based, Candida albicans
Procedure: as §1

[4] = Penetration through human nails (nail adapter, wetted cotton bud receptor, RP-HPLC); type: in vitro ADME
Procedure: Penetration of NaD1 through human nails was measured according to the method of Hui et al. (2002) J Pharm Sci 91(1):189-195. Human toenails were obtained from ScienceCare (USA) and washed with phosphate buffered saline (details, PBS) before being placed on a kimwipe that had been soaked in PBS for 3 h to rehydrate the nail. […]
The cotton bud in contact with the underside of the nail was removed after 24 h and every 24 h following. Protein that had passed through the nail was recovered from the cotton bud by washing twice with 500 μL of 0.1% v/v trifluoroacetic acid. Recovered protein was quantified using RP-HPLC.

[5] = system: T. interdigitale; assay: Antifungal growth inhibition assay in 96 well microtitre plates (A595); type: cell-based, Trichophyton interdigitale
Procedure: as §1

[6] = system: Trichophyton rubrum, T. interdigitale, Microsporum fulvum and C. albicans; assay: Inhibition assays, summary across the range of fungal pathogens; type: cell-based; settings: summary of Table 3
Procedure: as §1

[7] = system: Human monocytic lymphoma (U937) cells; type: cell-based
Procedure: Human monocytic lymphoma (U937) cells are cultured in RPMI-1640 medium. All culture media are supplemented with 5-10% v/v fetal calf serum, 100 U/ml of penicillin, and 100 μg/ml of streptomycin. Cell lines are cultured at 37° C. in a humidified atmosphere containing 5% v/v CO2. Adherent cell lines are detached from the flask by adding a mixture containing 0.25% v/v trypsin and […] EDTA. A flow cytometry-based propidium iodide (PI) uptake assay is performed to analyze the ability of plant defensins to permeabilize U937 cells (essentially as described in Poon et al, 2014). Briefly, cells are suspended to 1×10^6 cells/ml in 0.1% v/v BSA/RPMI-1640 and incubated with plant defensins (10 μM) at 37° C. for 30 min Samples are added to PBS containing a final concentration of 1 μg/ml PI and placed on ice. Samples are then analyzed immediately using the BD FACSCanto II Flow Cytometer and BD FACSDiva software v6.1.1. The resultant flow cytometry data is analyzed using FlowJo software v8.8.6. Cells are gated appropriately based on forward scatter and side scatter and cell permeabilization is defined by PI-positive staining.

[8] = system: Escherichia coli; assay: Inhibition of the growth of Escherichia coli; type: cell-based; settings: 0.1625 μM to 10 μM, 18 hours at 37° C., OD595
Procedure: A single E. coli colony was used to inoculate 5 ml of Luria-Bertani media and grown overnight at 37° C. The following day, the optical density of the culture was measured and the E. coli diluted to an optical density at 600 nm (OD600) of 0.01 in Mueller-Hinton Broth. Diluted E. coli were added to 96-well plates with defensins at concentrations of 10 μM, 5 μM, 2.5 μM, 1.25 μM, 0.625 μM, 0.3125 μM or 0.1625 μM. Plates were read at OD595 to obtain time zero data points. Plates were incubated at 37° C. for 18 hours before reading again at OD595 to assess the amount of E. coli growth.

[9] = system: Trichophyton rubrum; assay: Inhibition of the growth of Trichophyton rubrum over 28 days; type: cell-based
Procedure: The inhibitory effect of HXL008 on the growth of Trichophyton rubrum (obtained from the National Mycology Reference Centre, South Australia Pathology at the Women's and Children's Hospital, Adelaide, Australia) was monitored over 28 days.
Spores of T. rubrum, are isolated from sporulating fungus growing on ½ strength Sabouraud dextrose agar. Spores are removed from the plates by the addition of ½ strength potato dextrose broth (PDB). Spore and cell concentrations are measured using a hemocytometer.
Spores were diluted to a concentration of 5×10^4 spores/mL in ½ PBD (2 mL) containing 0, 10 or 50 μg/mL HXL008. Cultures are incubated at 30 C without shaking. After 24 h, 100 μL of each culture is extracted and plated onto ½ SDA plates. An additional 100 uL of ½ PDB is then added containing either 0, 20 or 100 μg of HXL008. SDA plates are then incubated at 30 C for 5 days. This process is repeated every 24 h for 28 days. After 15 days, the culture containing no HXL008 becomes too thick to pipette and is no longer used in the assay.

[10] = system: clinical isolates of T. rubrum; assay: Cell survival assay for clinical isolates of T. rubrum (plating after incubation); type: cell-based, Trichophyton rubrum; settings: incubated with 100 µg/mL HXL008 for 72 h, plated on Sabouraud dextrose agar, 5 days at 30° C.
Procedure: After incubation for 72 h, the media from wells containing clinical isolates of T. rubrum incubated with 100 […] HXL008 was plated onto fresh Sabouraud dextrose agar. Plates were incubated at 30° C. for 5 days to allow colonies to develop before being photographed.

Substance	IC50 against M. fulvum [1] [µg/mL]	IC50 against T. rubrum [2] [µg/mL]	IC50 against C. albicans [3] [µg/mL]	Nail penetration [4]	IC50 against T. interdigitale [5] [µg/mL]	Antifungal activity across the range of fungal pathogens [6]	Cells permeabilized (PI-positive) [7]	Inhibition of growth of E. coli [8]	Visible growth of T. rubrum in culture ([9]; 10 μg/mL or 50 μg/mL, over the duration of the assay (28 days))	T. rubrum cells killed ([9]; 50 μg/mL, within 24 h)	T. rubrum cells dead ([9]; after 20 days of treatment)	Surviving colonies per plate ([9]; after 20 days of treatment, 100 μL of culture plated) [colony]	Surviving colonies on agar plates [10]
HXL004: Class I plant defensin from Nicotiana benthamiana, SEQ ID NO:7 (Table 1) (RTCESQSHRFKGLCFSRSNCASVCHTEGFNGGHCRGFRRRCFCTRHC; HXL004 Nicotiana benthamiana)	12	27.5	20	able to penetrate nails faster and more effectively than the active ingredients of current topical onychomycosis therapies	19	intermediate activity	13%	inhibited the growth of E. coli in a concentration dependent manner	–	–	–	–	–
HXL008: Class I plant defensin from Picramnia pentandra, SEQ ID NO:1 (KVCTKPSKFFKGLCGTDGACTTACRKEGLHSGYCQLKGFLNSVCVCRKHC; HXL008 Picramnia pentandra)	7	3	20	able to penetrate nails faster and more effectively than the active ingredients of current topical onychomycosis therapies	3.5	the most effective plant defensins across the range of fungal pathogens	less than 2%	did not inhibit growth of E. coli at the concentrations tested	did not display any visible growth	more than 80%	more than 99.5%	≤ 1	1-3 colonies
NaD1: Solanaceous Class II plant defensin from Nicotiana alata, SEQ ID NO:18 (RECKTESNTFPGICITKPPCRKACISEKFTDGHCSKILRRCLCTKPC; NaD1 Nicotiana alata)	5.3	8	20	able to penetrate nails faster and more effectively than the active ingredients of current topical onychomycosis therapies	10	–	33%	did not inhibit growth of E. coli at the concentrations tested	–	–	–	–	–
LL37: human antimicrobial peptide used as a control (LLGDFFRKSKEKIGKEFKRIVQRIKDFLRNLVPRTES; Antibacterial peptide LL-37; UniProt P49913 134-170, looked up) [reference compound]	–	–	–	–	–	–	–	inhibited the growth of E. coli in a concentration dependent manner	–	–	–	–	–
